Source: PMC6150271, “‘Click Chemistry’ Synthesis of Novel Natural Product-Like Caged Xanthones Bearing a 1,2,3-Triazole Moiety with Improved Druglike Properties as Orally Active Antitumor Agents” (Molecules : A Journal of Synthetic Chemistry and Natural …, 2017)
Values after ≈ are worked out from the molar mass of the structure shown. Where two headings read alike, the source gives them in different places. Marks after values point to notes of the source that are not given here.

Legend:
[1] = test system: lung cancer A549 transplanted mouse model; test: In vivo tumor growth inhibition, intravenous administration; parameters: species or system Kunming mice; settings: for Body Weight After-Dose / Inhibitory Rate / Weight of Tumor: two weeks
Protocol: The lung cancer A549 transplanted mouse model was employed. DDO-6101 and antitumor drug 5-fluorouracil (5-FU) were also tested for comparison.
(§1) Kunming mice with body weights of 18–22 g were transplanted with lung cancer A549 cells according to protocols of transplant tumor research, as previously reported. Twenty-four hours after tumor transplantation, animals were weighed and randomly divided into five groups. All test drugs were given […] 24 h after tumor transplantation. The treated groups were intravenously injected or administered per os different doses of test compounds, respectively. The negative control group received 0.9% normal saline. Treatments were conducted at a frequency of one dose per two days for the intravenous group or one dose per day for the per os group for two or one week, respectively. All animals were sacrificed 24 h after the final treatment. All data are presented as mean ± SD and the statistical significance was evaluated by t-test.

[2] = test system: human lung carcinoma A549 cell line; test: MTT antiproliferative assay, A549; format: cell-based; settings: for IC50: Homo sapiens, A549, MTT, 72 h
Protocol: (§2) The antiproliferative activity of the ten synthesized caged xanthone derivatives, as well as the lead compound DDO-6101 and GA were assessed with the 3-(4,5-dimethylthiazol-2-yl)-2,5-diphenyltetrazolium bromide (MTT) assay, as previously reported, against six human cancer cell lines, including the human lung carcinoma A549 cell line, taxol-resistant A549 cell line (A549/taxol), cisplatin-resistant A549 cell line (A549/cisplatin), the human hepatocellular carcinoma HepG2 cell line, the human colon carcinoma HCT-116 cell line, and the human glioblastoma U251 cell line. DDO-6101 and GA were used as positive controls for the in vitro assay.
(§3) Cancer cell lines were obtained from Cell Bank of Shanghai, Chinese Academy of Sciences. Cells were cultured in 90% RPMI 1640 medium (GIBCO, Invitrogen Corporation, New York, NY, USA) supplemented with 10% fetal bovine serum (Sijiqing Biotechnology Co., Hangzhou, China), 100 U/mL benzyl penicillin, and 100 μg/mL streptomycin in a humidified environment with 5% CO2 at 37 °C. All the tested compounds were dissolved in DMSO at a concentration of 0.01 mol/L and stored at −4 °C.
(§4) The inhibition of tumour cell growth was measured by a modified tetrazolium (MTT) salt assay. Cells were cultured in a 96-well plate and treated with culture medium alone or different concentrations of the compounds. The cells were incubated for 72 h, and then the MTT assay reagent was added. After a 4 h incubation, the formazan product was quantitated at 570 nm. The IC50 values (the concentrations that gave rise to 50% inhibition of cell viability) were calculated using GraphPad Prism 6 using a variable slope (four parameters).

[3] = Aqueous solubility by HPLC; settings: deionized water, thermodynamic from solid
From the text: (§5) In parallel with the in vitro antitumor activity testing, the physicochemical properties of the target caged xanthone derivatives were theoretically predicted and experimentally determined in an effort to identify potential druglike compounds prior to the time-consuming and costly development and optimization of derivatives that may ultimately fail in efficacy experiments in vivo. The partition coefficient (logD) was experimentally determined on a Gemini Profiler instrument (pION, Inc., Woburn, MA, USA) by a potentiometric titration method. The polar surface area (PSA), as well as intestinal absorption level, were theoretically predicted by Accelrys Discovery Studio 4.0 (BIOVIA, San Diego, CA, USA) using the ADMET protocol. […] The permeability coefficient (Pe) was determined using a standard parallel artificial membrane permeability assay (PAMPA) on a PAMPA Explorer instrument (pION).
(§6) A HPLC system with an ultraviolet (UV) detector was used to detect the solubility of the compounds. The optimal wavelength was 290 nm. Ethanol/water (85:15) was an efficient eluent at a flow rate of 0.5 mL/min. The compounds were stirred in deionized water overnight to maximize the retention of the compounds in solution. Then, the solutions were filtered and the supernatant was used as a fluid sample for HPLC detection. The permeability (Pe) of the compounds was tested with the help of a standard PAMPA (pION). PAMPA was performed on a PAMPA Explorer instrument (pION) with the PAMPA Explorer command software (Version 3.7.4.1). The compounds were diluted to 10 mM with the system solution buffer (pH 7.4). Then, 150 μL of the diluted compound solution was transferred to a UV plate, and the UV spectrum was collected and used as a reference. Then, paint the membrane with 5 μL of gastrointestinal tract (GIT) lipid. The acceptor chamber was filled with 200 μL of acceptor solution buffer, and the donor chamber was filled with 200 μL of diluted compound solution. The PAMPA sandwich was assembled and left at 25 °C for 4 h. The UV spectra (240–500 nm) from the donor and the acceptor were collected. The permeability coefficient was calculated with the PAMPA Explorer Command software (Version 3.7.4.1) based on the area under the curve (AUC) of the reference plate, the donor plate, and the acceptor plate. The permeability coefficient of the compound was tested for four times, and the data are shown as the average values.

[4] = test system: taxol-resistant A549 cell line (A549/taxol); test: MTT antiproliferative assay, A549/taxol; format: cell-based; settings: Homo sapiens
Protocol: as §2, §3, §4

[5] = test system: human hepatocellular carcinoma HepG2 cell line; test: MTT antiproliferative assay, HepG2; format: cell-based; settings: 72 h
Protocol: as §2, §3, §4

[6] = test system: cisplatin-resistant A549 cell line (A549/cisplatin); test: MTT antiproliferative assay, A549/cisplatin; format: cell-based; settings: Homo sapiens, 72 h
Protocol: as §2, §3, §4

[7] = Parallel artificial membrane permeability assay (PAMPA)
From the text: as §5
as §6, with “The PAMPA sandwich was assembled and left at 25 °C for 4 h.” left out

[8] = test system: lung cancer A549 transplanted mouse model; test: In vivo tumor growth inhibition, per os administration; parameters: species or system Kunming mice; settings: for Body Weight After-Dose / Inhibitory Rate / Weight of Tumor: 50 mg/kg daily, one week; for Body Weight Pre-Dose: 50 mg/kg
From the text: Subsequently, 8g was set to determine further its in vivo efficacy with per os administration on the growth of inoculated A549 in mice using DDO-6101 as a comparison control. […] Thus, compound 8g was identified as a new and orally-active natural-product-like caged xanthone and also a promising antitumor agent for further clinical development.
as §1

[9] = test system: human colon carcinoma HCT-116 cell line; test: MTT antiproliferative assay, HCT116; format: cell-based; settings: 72 h
Protocol: as §2, §3, §4

[10] = logD by potentiometric titration (Gemini Profiler); format: physicochemical; settings: pH 7.4; measured on Gemini Profiler instrument (pION); read-out: Log D 7.4
[11] = test system: U2OS cells; test: MTT antiproliferative assay, U2OS; format: cell-based; settings: Homo sapiens, 72 h
[12] = A549/Taxol, MTT, 72 h, read-out: IC50 A549/Taxol
[13] = range over both resistant A549 lines and both compounds, read-out: IC50 values, taxol-resistant and cisplatin-resistant A549 cell lines

SMILES | Body Weight Pre-Dose ([1]; 20 mg/kg) | Body Weight After-Dose ([1]; 20 mg/kg) | Inhibitory Rate ([1]; 20 mg/kg) | Weight of Tumor ([1]; 20 mg/kg) | IC50 [2] | solubility [3] | IC50 [4, 12] | IC50 [4, 13] | IC50 [5] | IC50 [6] | Papp at 4 h, 10 mM ([7]; pH 5) | Papp at 4 h, 10 mM ([7]; pH 6.2) | Papp at 4 h, 10 mM ([7]; pH 7.4) | Body Weight After-Dose [8] | Inhibitory Rate [8] | Weight of Tumor [8] | IC50 [9] | logD [10] | IC50 [11] | melting point | also measured
CC(C)=CCC12OC(C)(C)C3CC(C=C4C(=O)c5c(OCc6cn(CCN7CCOCC7)nn6)cccc5OC431)C2=O (stereo not drawn) [Compound 8g] | 20.67 ± 1.30 g | 27.73 ± 2.78 g | 71.32% | 0.40 ± 0.14 ^b g | 310 ± 20 nM | 3.02 mM (≈ 1740 µg/mL) | 420 ± 50 nM | 330 to 550 nM | 3790 ± 430 nM | 330 ± 70 nM | 51.3 ± 4.8 ×10⁻⁶ cm/s | 63.1 ± 5.6 ×10⁻⁶ cm/s | 74.4 ± 6.8 ×10⁻⁶ cm/s | 27.73 ± 2.78 g | 66.43% | 0.47 ± 0.12 ^a g | 280 ± 30 nM | 1.3 | 950 ± 210 nM |  | Body Weight Pre-Dose ([1]; 5 mg/kg): 20.80 ± 1.53 g; Body Weight After-Dose ([1]; 5 mg/kg): 28.53 ± 2.81 g; Inhibitory Rate ([1]; 5 mg/kg): 30.88%; Weight of Tumor ([1]; 5 mg/kg): 0.94 ± 0.24 ^a g; Body Weight Pre-Dose ([1]; 10 mg/kg): 21.40 ± 1.81 g; Body Weight After-Dose ([1]; 10 mg/kg): 28.08 ± 2.66 g; Inhibitory Rate ([1]; 10 mg/kg): 52.21%; Weight of Tumor [1]: 0.65 ± 0.17 ^b g; fold higher activity than DDO-6101 in A549 cells ([2]; from IC50 values): approximately eight-fold; Pe range ([7]; range under different pH from 5.0 to 7.4): 51.3–74.4 × 10^–6 cm/s; Body Weight Pre-Dose [8]: 20.67 ± 1.20 g
CC(C)=CCC12OC(C)(C)C3CC(C=C4C(=O)c5c(OCc6cn(CCCN7CCOCC7)nn6)cccc5OC431)C2=O (stereo not drawn) [Compound 8h] |  |  |  |  | 1030 ± 60 nM | 3.7 mM (≈ 2180 µg/mL) | 550 ± 80 nM | 330 to 550 nM | 3070 ± 130 nM | 360 ± 40 nM | 40 ± 0.1 ×10⁻⁶ cm/s | 58 ± 6.1 ×10⁻⁶ cm/s | 72.6 ± 0.1 ×10⁻⁶ cm/s |  |  |  | 950 ± 120 nM | 0.9 | 730 ± 70 nM | 143 to 145 °C | 
CC(C)=CCC12OC(C)(C)C3CC(C=C4C(=O)c5c(OCc6cn(CCN7CCN(C)CC7)nn6)cccc5OC431)C2=O (stereo not drawn) [Compound 8i] |  |  |  |  | 3330 ± 490 nM | 3.22 mM (≈ 1890 µg/mL) | 2120 ± 90 nM |  | 5350 ± 230 nM | 780 ± 80 nM | 11.3 ± 0.6 ×10⁻⁶ cm/s | 41.5 ± 1.3 ×10⁻⁶ cm/s | 67.5 ± 4.2 ×10⁻⁶ cm/s |  |  |  | 6150 ± 860 nM | 1 | 9510 ± 1520 nM | 171 to 175 °C | 
CC(C)=CCC12OC(C)(C)C3CC(C=C4C(=O)c5c(OCc6cn(CCCN7CCN(C)CC7)nn6)cccc5OC431)C2=O (stereo not drawn) [Compound 8j] |  |  |  |  | 930 ± 80 nM | 4.02 mM (≈ 2420 µg/mL) | 820 ± 80 nM |  | 2910 ± 30 nM | 1290 ± 110 nM | 9.7 ± 0.5 ×10⁻⁶ cm/s | 43.2 ± 0.7 ×10⁻⁶ cm/s | 64.9 ± 5.4 ×10⁻⁶ cm/s |  |  |  | 1090 ± 210 nM | 0.7 | 5860 ± 210 nM | 126 to 129 °C | 
CC(C)=CCC12OC(C)(C)C3CC(C=C4C(=O)c5c(O)cccc5OC431)C2=O (stereo not drawn) [DDO-6101, reference compound] | 21.13 ± 1.22 g | 27.69 ± 1.90 g | 34.56% | 0.89 ± 0.18 ^b g |  | < 0.005 mM | 460 ± 30 nM |  | 2040 ± 80 nM |  | 23.6 ± 5.5 ×10⁻⁶ cm/s | 25.8 ± 1.1 ×10⁻⁶ cm/s | 18 ± 3.9 ×10⁻⁶ cm/s | 26.69 ± 1.90 g | 21.43% | 1.10 ± 0.25 ^b g | 710 ± 100 nM | 2.9 | 5350 ± 80 nM |  | Body Weight Pre-Dose [8]: 21.13 ± 1.02 g
